Patent publication US20180291378A1, “METHODS AND COMPOSITIONS FOR PROMOTING HAIR GROWTH” (THE TRUSTEES OF COLUMBIA UNIVERSITY IN THE CITY OF NEW YORK, priority 2015, published 2018)

Legend:
[1] = system: C57/B6 mice in telogen; assay: Anagen induction by topical treatment of shaved wildtype mice in telogen; type: in vivo, mouse; conditions: for days of treatment until treated follicles re-initiate anagen: 7 week old mice, treated for 24 days; for mice displaying skin darkening and hair growth within 10 days of starting treatment: 8.5 week old mice treated for 5 days
Source text: It was hypothesized that inhibition of JAK-STAT signaling promotes entry into the hair cycle in mice. To determine the onset of anagen, backskin hairs were trimmed with an electric shaver, and entry of HF into anagen was observed by the appearance of darkening skin and by hair regrowth. For the hair cycle experiments described in FIG. 1A, biopsies were taken from 2 mice/time point, and the experiment was replicated on 3 sets of littermates. For the experiments described in supp. FIGS. 1C&D, 3-4 mice were used per group (7 week vs. 8.5 week), and the experiment was replicated 3 times. […] The experiment presented in FIG. 1E was independently replicated once, with 3 mice/condition. The experiments described in FIG. 2A, 3 mice/genotype were utilized, and the experiment was replicated in 2 sets of littermates.
Ruxolitinib (INCB018424) was purchased from ChemieTek (catalog number CT-INCB). […] Hedgehog agonist (SAG) was purchased from EMD Millipore (catalog number 566660). JAK-STAT inhibitors were dissolved in DMSO and used at 2-3% for in vivo experiments, as indicated, and 400 nM for in vitro experiments. SAG was used at 120 uM, as described in Paladini et al (2).

[2] = system: human DP spheres; assay: Patch assay with dermal papilla spheres; type: in vivo; conditions: DP spheres treated at 400 nM
Procedure: DP cells were grown in spheres as previously described (35). […] Each hanging drop contained 1000 cells, which aggregated to form DP spheroids after 24 hours. 48 hours after plating, 500 spheres in each condition were collected for use in the patch assay. Each experiment was performed with cells derived from a single individual, and four separate experiments were conducted. Keratinocytes were isolated from new born mice following the protocol outlined by Lichti et al (63). Cells were cultured in dkSFM for 2-4 days prior to being harvested for the patch assay. 1×10^6 newborn murine keratinocytes were then mixed together with 500 human DP spheres in each condition, and injected subdermally into dorsal skin of a nude mouse. 12 days after performing the injections, cysts had developed in the dermis, some which contained HF and hair fibers. These cysts were collected, photographed and then digested in 0.35% collagenase. The digested slurries were spread onto microscope slides and hair fiber counts were manually performed under a stereo microscope.

[3] = system: STAT3 and STAT5; assay: STAT3 and STAT5 activation in whole skin treated in vivo; parameters: species or system mouse
[4] = system: STAT1, STAT3 and STAT5; assay: OSM-induced STAT activation in cultured keratinocytes; type: cell-based, mouse
[5] = system: whole skin gene expression; assay: Whole skin microarray / IPA pathway analysis after 4 days of treatment; type: in vivo, mouse; conditions: 8.5-week-old mice
Procedure: Gene expression profiling was performed on whole skin biopsies from 12 B6/C57 female mice, 8.5 weeks of age. Biopsies were taken from dorsal skin at day 0 (T0) of the experiment. […] Quality control was performed using the affy analysisQC package from http://arrayanalysis.org/. […] Data were normalized using the GCRMA method as implemented in affyAnalysisQC. LIMMA was used with a multilevel model to identify genes that were differentially expressed between samples at T5 and T0 for each treatment group (DMSO, RUXO, and TOFA) using a threshold of fold change=1.5 and P<0.05.
Total RNA was extracted using the Qiagen RNAeasy micro kit. The Ovation RNA Amplification kit (Nugen) was used to generate amplified cDNA for microarray analysis. Arrays used were Affymetrix mouse 430 2.0, hybridized at the CUMC microarray facility. qPCR analysis was performed on the ABI 7300 cycler. Primers sequences available in Table 2.

[6] = system: mouse keratinocytes; assay: Colony forming assay with mouse keratinocytes harvested at telogen; type: cell-based
[7] = system: OSM-Rβ; assay: OSM-Rβ expression in mouse skin treated in vivo during telogen; conditions: whole skin biopsies daily over 5 days of treatment
[8] = system: human fetal scalp skin grafts; assay: Human skin grafting assay on SCID mice; type: in vivo; conditions: daily topical application, 4 weeks
Procedure: The mice were bandaged, and the grafts were left to recover for 6 weeks. […] Grafts were treated daily with topical application of vehicle control, ruxolitinib or tofacitinib. Treatment continued for 4 weeks, and pictures were taken every 3-5 days. Experiments were performed with skin from 3 separate donors. Quantification of hair growth was performed using ImageJ. Taking advantage of the fact that the donor hair was dark and the grafted mouse was white, the intensity of pigmentation was measured as a proxy for density of HF. Since control and experimental treatments were performed on the same graft, each image allows for the direct comparison between vehicle- and drug-treated skin. Darker regions are given a lower value than bright regions. Ratio was calculated by averaging the intensity values for the control treated side, by the intensity values for drug-treated side, accounting for pre-treatment differences in hair growth on the graft and for changes in hair density occurring over time.

[9] = system: human DP spheres gene expression; assay: DP spheres microarray / GEDI / gene set enrichment analysis; type: cell-based
Procedure: For the DP spheres microarray analysis, cells were prepared from three different donors, and Affymetrix human HG-U133 PLUS 2.0 arrays were hybridized at the CUMC genomics facility. Quality control and data normalization was performed as described above. For the organ culture experiment, 3 sets of repeats were performed, each times using HF derived from a single individual.
For the DP spheres microarray analysis, total RNA was extracted from DP spheres cultured in DMSO, ruxolitinib or tofacitinib from each of the three donors using the Qiagen RNAeasy micro kit. The Ovation RNA Amplification kit (Nugen) was used to generate amplified cDNA for microarray analysis. LIMMA was used with a linear model treating both treatment and the blocking factor, donor, as fixed effects. Contrasts of interest between treatments were used to identify genes that were differentially expressed between pairs of treatments for the treatments DMSO, RUXO, and TOFA. A threshold of absolute fold change=1.5 and P<0.05 was employed. For GSEA, the HG_U133_Plus_2.0 chip annotation file downloaded from ftp.broad.mit.edullpub/gsedannotations/was used to annotate the Affymetrix ProbeSets and to remove duplicate ProbeSets for a given Gene Symbol. Duplicates were removed based on the maximum absolute fold-change observed for each Gene Symbol. Pre-ranked gene lists were generated for each treatment contrast of interest, using the moderated t-statistics returned by LIMMA. GSEA was performed on these lists to identify KEGG pathways overrepresented in each list (ES p-value 0.01).
The gene set enrichment analysis comparing tofacitinib-treated and control cells was performed by generating a list of all detected transcripts ranked by differential expression (p-value), and direction of fold change (up or down). This ranked list was tested for enrichment of the union of territories 2 and 4 (gene list provided in Table 3) as described previously (35). A null distribution for computing the normalized enrichment score (NES) and its associated p-value was obtained by label shuffling to randomize the gene rankings. These randomized sets were then used to compute null enrichment scores over 5000 iterations to generate a null distribution. The observed leading edge enrichment score was normalized to this distribution and a 2-tailed p-value was generated for this NES.

[10] = system: human adult scalp hair follicles; assay: Human hair follicle organ culture assay; type: cell-based
Procedure: Adult human follicles were microdissected from occipital skin under sterile conditions as previously described.
Media was replaced every 2 days, and images of individual follicles were taken every 2 days. Analysis of the growth rate of each follicle was performed using Image J.

[11] = system: hair germ compartment (P-cad+); assay: Hair germ proliferation (Ki67 / EdU) in treated mouse skin; type: in vivo
Procedure: C57/B6 mice at 8.5 weeks of age were treated on half of the dorsal back with either topical vehicle control (left side) or JAK inhibitors (right side). Four hours post treatment each mouse received a single injection of 20 mg/kg 5-ethynyl-2′-deoxyuridine (EdU) (Invitrogen). One hour after injection, skin was harvested, fixed and stained using the Click-iT EdU Alexa Fluor 488 Imaging Kit (Life Technologies) per manufacturer's instructions, and co-stained for P-cadherin. Experiment was replicated once, with 1 mouse/time point.

[12] = system: OSM-Rβ; assay: OSM-Rβ expression in cultured mouse keratinocytes; type: cell-based; conditions: recombinant mouse OSM at 20 ng/ml

N#CC[C@H](C1CCCC1)n1cc(-c2ncnc3[nH]ccc23)cn1 [ruxolitinib]
days of treatment until treated follicles re-initiate anagen [1]: ≤ 18 days | mice displaying skin darkening and hair growth within 10 days of starting treatment [1]: ~90%

C[C@@H]1CCN(C(=O)CC#N)C[C@@H]1N(C)c1ncnc2[nH]ccc12 [tofacitinib]
inductivity of DP spheres [2]: did enhance inductivity | size and numbers of HFs induced ([2]; with neonatal mouse keratinocytes in nude mice): larger and significantly greater numbers of HFs | days of treatment until treated follicles re-initiate anagen [1]: ≤ 21 days | mice displaying skin darkening and hair growth within 10 days of starting treatment [1]: ~90% | re-entry into the hair cycle ([1]; topical, half of dorsal back, treated three weeks): rapid re-entry into the hair cycle, with kinetics similar to the Shh agonist | STAT3 and STAT5 activation [3]: effective inhibition | effect on OSM-induced STAT1, STAT3 and STAT5 activation ([4]; in vitro cultured keratinocytes): efficiently abrogated | expression of hair cycle regulators Shh and Prom1 ([5]; T5 vs T0): significantly upregulated | pathways enriched by only one of the drug treatments ([5]; T5 vs T0): pathways involved in cell motility and migration, such as Rho and integrin signaling | pathways enriched in both drug treatments (IPA) ([5]; T5 vs T0, not in vehicle): melanogenesis and the Wnt pathway were enriched | effect on OSM growth inhibition ([6]; added to OSM): reversed partially | number of keratinocyte colonies ([6]; drug alone): increase the number of keratinocyte colonies | OSM-Rβ expression, qRT-PCR [7]: Downregulation | HF growth on graft compared to controls [8]: denser HF growth | expression of LEF1, WIF1 and CD133 [9]: upregulate | expression of TGβ2, BMP6 and LEF1 [9]: upregulated | gene set enrichment of territory T4 ([9]; treated vs untreated spheres): significantly enriched | gene set enrichment of territory T2 ([9]; treated vs untreated spheres, overlap only marginally significant): enriched | expression of FGFR1, ACVRL1, IGFR1, OSMR and PTGFR (region 1) ([9]; vs control): repressed in both treatments but lower in tofacitinib treatment | expression of members of the TGFβ pathway and the BMP pathway (regions 3 and 4) ([9]; vs control): upregulated | expression of pro-apoptotic genes BAX, BCL2L11 and CASP12 (region 2) ([9]; vs control): downregulated | key regulators of the WNT pathway (LEF1) and members of the NOTCH pathway ([9]; vs control): overrepresented | length of hair shafts / rate of hair elongation ([10]; 400 nM, follicles from a single donor): significantly increased length of hair shafts | growth rate of anagen, repeat experiment ([10]; follicles from two individuals, did not reach statistical significance): increased the growth rate of anagen | Edu+ cells within the hair germ (P-cadherin+) compartment ([11]; after three treatments, skin harvested 5 hours after treatment): clearly visible | proliferation within the hair germ compartment (P-cad+) ([11]; mice in telogen treated 4 days): Significant proliferation

B1: OSM: oncostatin M, secreted cytokine of the IL-6 family; recombinant mouse OSM used at 20 ng/ml (protein, UniProt P53347 25-206, looked up)
Oncostatin-M: NRGCSNSSSQLLSQLQNQANLTGNTESLLEPYIRLQNLNTPDLRAACTQHSVAFPSEDTLRQLSKPHFLSTVYTTLDRVLYQLDALRQKFLKTPAFPKLDSARHNILGIRNNVFCMARLLNHSLEIPEPTQTDSGASRSTTTPDVFNTKIGSCGFLWGYHRFMGSVGRVFREWDDGSTRSRR
activation of STAT1, STAT3 and STAT5 transcription factors ([4]; within 10 minutes of OSM treatment): activated | effect on keratinocyte colony growth ([6]; OSM alone): growth inhibitory effect | expression of OSM-Rβ [12]: upregulated
